One data set relates to RAMs. Kind of data set: Enzyme kinetics of toddalolactone metabolism in rabbit liver microsomes (oxidative metabolism and glucuronidation). The note with it: RAMs; for V max: toddalolactone 1–200 μM. It counts as in vitro ADME. How it is done: (§1) The CYP reaction system (200 μL) consisted of 0.1 M potassium phosphate buffer (pH 7.4), an NADPH-generating system (1 mM NADPH, 10 mM G-6-P, 1 unit/mL G-6-PD, 4 mM MgCl2), and liver microsomes or recombinant human microsomes (supersomes). Each of the in vitro enzymatic assays using liver microsomes was linear with respect to incubation time and amount of protein. After a pre-incubation at 37 °C for 3 min, the reactions were initiated by adding NADP^+. After incubating for 60 min, the reactions were quenched by adding 200 μL of ice-cold acetonitrile. Samples were centrifuged at 18,000 g for 15 min at 4 °C and 10 μL of supernatant was analyzed using an HPLC system. NADPH or CYP enzyme sources were not used in the control group to ensure that the metabolic reactions were CYP- and NADPH-dependent. All incubation assays were completed in triplicate. The data are presented as mean ± standard deviation (SD).
(§2) In the UGT reaction system, liver microsomes were incubated in 200 μL of the reaction system containing 4 mM UDPGA, 5 mM MgCl2, 20 µg/mL alamethicin, and 50 mM Tris-HCl buffer (pH 7.4). After pre-incubation at 37 °C for 3 min, UDPGA was added to the mixture to initiate the reactions. The mixtures were incubated at 37 °C for 60 min, followed by the addition of 200 μL of cold methanol to terminate the reactions. After centrifugation at 18,000 g for 15 min, 10 μL of the supernatant was analyzed by HPLC.
(§3) The enzyme kinetics of toddalolactone in oxidative metabolism and glucuronidation were determined by incubating liver microsomes (0.2 mg/mL) or CYPs (15 nM) with different concentrations of toddalolactone (1–200 μM). The kinetic parameters including Km and Vmax were obtained by fitting the experimental data to the Michaelis–Menten equation (Equation (1)), biphasic kinetics equation (Equation (2)), or substrate inhibition equation (Equation (3)) (He et al. [2018]), and the results were graphically represented on Eadie–Hofstee plots. The in vitro intrinsic clearance (CLint) was calculated based on the Vmax/Km ratio. Metabolites were quantified using the standard curve for toddalolactone because of the absence of metabolite standards. All incubations were repeated in three independent experiments. Kinetic constants were expressed with mean ± SD: (1) V=Vmax×[S]/Km+[S] (2) V=Vmax1×[S]/Ks1+[S]+Vmax2×[S]/Ks2+[S] (3) V=Vmax×[S]/Ks+[S]+[S]^2/Ksi where v is the rate of reaction, Vmax is the estimated maximum velocity, [S] is the substrate concentration, and Km is the affinity constant of the substrate; Vmax1 and Vmax2 represent the estimated maximum velocity of the two metabolic phases; Ks1 and Ks2 represent the affinity constants for two metabolic phases; Ks and Ksi are the substrate affinity and inhibition constants, respectively.
(§4) The enzyme kinetics in oxidative metabolism and glucuronidation of toddalolactone were studied, and preliminary experiments were performed to ensure that metabolites were formed in the linear range of both reaction time and microsomal protein concentration. The metabolite with the largest peak area was used to calculate the kinetic parameter values (Km, Vmax and CLint). Based on the results of toddalolactone metabolism in different species, the kinetic parameter values in RLMs, DLMs, MLMs, HLMs, RAMs, MIMs, PLMs, CYP1A1 and CYP3A5 were calculated using P4, P4, P4, P4, P2, P2, P4, P4 and P4 data in oxidative metabolism, respectively. In the glucuronidation reaction, the kinetic parameter values in RLMs, MLMs, HLMs, RAMs and PLMs were calculated using P5, P6, P6, P6 and P5 data, respectively.
Background: Liver microsomes are a subcellular fraction often used to study metabolism.

Test in data set [1]: as above
In kind it is in vitro ADME. The note with it: rabbit, liver microsomes, pH 7.4, RAMs, Vmax/Km. How it is done:
as §1, §2, §3, §4

A short description of data set [2]: Metabolic stability assessment in mouse liver microsomes. The note with it: pH 7.4, MIMs, CYP incubation system, toddalolactone 20 μM, 0-90 min, read-out: half-life value (T1/2). It counts as in vitro ADME. How it is done:
as §1, with “NADPH or CYP enzyme sources were not used in the control group to ensure that the metabolic reactions were CYP- and NADPH-dependent. All incubation assays were completed in triplicate. The data are presented as mean ± standard deviation (SD).” left out
(§5) In the UGT reaction system, liver microsomes were incubated in 200 μL of the reaction system containing 4 mM UDPGA, 5 mM MgCl2, 20 µg/mL alamethicin, and 50 mM Tris-HCl buffer (pH 7.4). […] After centrifugation at 18,000 g for 15 min, 10 μL of the supernatant was analyzed by HPLC.
(§6) Toddalolactone (20 μM) was incubated with different liver microsomes, including HLMs, DLMs, PLMs, MLMs, RAMs, RLMs or MIMs in oxidative metabolism and glucuronidation reaction systems. […] The mixtures were centrifuged at 18,000 g for 15 min at 4 °C and then 10 μL of the supernatant was analyzed by HPLC. […]
(§7) The peak areas of toddalolactone and its metabolites were detected using a HPLC system (Shimadzu, Kyoto, Japan). […]

Details of data set [3]: method as in Zhou et al. ([2021]). The conditions noted are these: mouse blood; intravenous administration; ref Zhou et al. ([2021]); cited from earlier work.
A further data set concerns other rhCYP isoforms. Description: Reaction phenotyping with the other recombinant human CYP isoforms. It counts as in vitro ADME. The note with it: other rhCYP isoforms (of thirteen), 15 nM, 37 °C, 60 min. How it is done: as §1
Thirteen cDNA-expressed human CYP isoforms (CYP1A1, CYP1A2, CYP2A6, CYP2B6, CYP2C8, CYP3A4, CYP2C19, CYP3A5, CYP1B1, CYP2C9, CYP2D6, CYP2E1 and CYP4F2) were used to identify the isoform(s) involved in the biotransformation of toddalolactone. Toddalolactone (10 μM) was incubated with each recombinant CYP (15 nM) for 60 min at 37 °C and metabolites were identified by HPLC.

A short description of data set [4]: Metabolic stability assessment in human liver microsomes (CYP and UGT incubation systems). In kind it is in vitro ADME. The note with it: pH 7.4, HLMs, toddalolactone 20 μM, 0-90 min. How it is done: as §1, with “NADPH or CYP enzyme sources were not used in the control group to ensure that the metabolic reactions were CYP- and NADPH-dependent. All incubation assays were completed in triplicate. The data are presented as mean ± standard deviation (SD).” left out
as §5, §6, §7

Where [5] appears, read: P450-catalyzed oxidation, P2 formation.
Setting [6] is: glucuronide metabolism, P6 formation.

The values that follow come from publication PMC9367672, “In vitro differences in toddalolactone metabolism in various species and its effect on cytochrome P450 expression” (Pharmaceutical Biology, 2022).

Molecules are shown by their SMILES.

Turning to `COc1cc2oc(=O)ccc2c(OC)c1C[C@@H](O)C(C)(C)O` [toddalolactone], the K m in the data set with RAMs (setting [5]) came out at 76.46 ± 16.02 µM; in the data set with RAMs (setting [6]), 91.46 ± 28.22 µM. The V max with RAMs (setting [5]) is 20.03 ± 1.72 pmol/min/mg protein; in the data set with RAMs (setting [6]), 11.98 ± 2.19 pmol/min/mg protein. In addition, the microsomal CLint in data set [1] (setting [5]) came out at 0.26 µL/min/mg; in data set [1] (setting [6]) it was 0.12 µL/min/mg. Further, the half-life at 20 μM in data set [2] was 3.92 ± 0.35 h; in data set [4] (CYP incubation system, read-out: half-life value (T1/2)) it was 11.2 h; in data set [4] (UGT incubation system, read-out: T1/2 value), 1.38 h. For the same compound, the t1/2 in data set [3] was 0.8 h. Also, the “catalysis of toddalolactone metabolism by rhCYP isoform” value in the data set on other rhCYP isoforms is listed as “very limited or even no catalytic activity”.
